Data set [1] can be described thus: Cytotoxicity assay (CCK‐8) on HepG‐2. The data set is classed as cell-based. Particulars: human, HepG-2 cells; read-out: Cell viability of HepG‐2. On the procedure: HT29‐MTX and HepG‐2 were cultured in RPMI medium and MEM, respectively, supplemented with 10% fetal bovine serum, 1% (v/v) penicillin, and streptomycin. HT29‐MTX or HepG‐2 were seeded (100 μL) into a 96‐well plate at a cell density of 1 × 10^4 cells/well. […] After co‐incubation for 24 h, the cytotoxicity was analyzed by CCK‐8 assay (Cell Counting Kit‐8, Beyotime).

Another data set deals with HT29‐MTX. The experiment in a line: Cellular uptake of the NPs loaded with CUR (CLSM, HPLC). It counts as cell-based. Particulars: CUR 5–20 μg/mL, 2 and 4 h, CLSM fluorescence / HPLC. On the procedure: HT29‐MTX was seeded in the 12‐well plate with 2 × 10^5 cells/well and incubated overnight. […] After co‐incubation for prescribed time intervals (2 and 4 h), the cells were cleaned with PBS and lysed by 1% Triton X‐100 at 4°C. […] The cellular uptake efficiency was calculated using Formula (11). In addition, after fixation with 4% paraformaldehyde, the HT29‐MTX stained with Hoechst 33342 were observed by CLSM. (11) Cellular uptake%=Cellular intake ofCUR/Total amount ofCURadded×100.
HT29-MTX was seeded in the 12-well plate with 2×10^5 cells/well and incubated overnight. […] After co-incubation for prescribed time intervals (2 and 4 h), the cells were cleaned with PBS and lysed by 1% Triton X-100 at 4 ℃. […] In addition, the HT29-MTX stained with Hoechst 33342 were observed by CLSM.

Data set [2] is described as follows: In vivo absorption in ligated small intestinal loops (CLSM). Particulars: SD rats, 2 h. On the procedure: In vivo transportation of the FITC‐labeled PA‐N‐2‐HACC NPs and FITC‐labeled PA‐N‐2‐HACC‐Cys NPs through the epithelial mucosa was qualitatively analyzed using […] in vivo absorption study.[69] Male SD rats (6–8 weeks, 230–250 g) were anesthetized by chloral hydrate, and 2‐cm sections of small intestinal loops were ligated at both ends. Then, 100 μL of 1 mg/mL FITC‐labeled PA‐N‐2‐HACC NPs and PA‐N‐2‐HACC‐Cys NPs were administered into different intestinal loops of the same SD rats (n = 3). […] After 2 h, the rats were sacrificed, and the loops treated with the FITC‐labeled NPs were withdrawn and washed with PBS (pH = 7.4). After fixation in 4% paraformaldehyde for 4 h and dehydration in 30% sucrose overnight, the loops were embedded in optimal cutting temperature compound and sectioned into 10‐μm slices using a freezing microtome (Leica CM1860, Wetzlar, Germany). Cell nuclei were stained with Hoechst 33342 for 10 min and visualized using CLSM.
All the animal care and experimental protocols were in accordance with the “National Research Council's Guide for the Care and Use of Laboratory Animals”. Male SD rats (6-8 weeks, 230-250 g) were anesthetized by chloral hydrate, and 2 cm sections of small intestinal loops were ligated at both ends. […]

Data set [3] in a line: Pharmacokinetic study after oral administration. It counts as in vivo, SD rats. On the procedure: Nine male SD rats were randomly divided into three groups (n = 3). […] Moreover, 500 μL of blood was taken before administration, and 300 μL of blood was taken from the heart at 0.25, 0.5, 1, 2, 4, 6, 9, 12, and 24 h after administration. The plasma samples were centrifuged at 3000 r/min for 10 min. Subsequently, 100 μL of plasma was mixed with 10 μL methanol containing internal standard (rheum emodin, 20 μg/mL). After vortexing for 3 min, 250 μL ethyl acetate was added, and the mixture was centrifuged at 3000 r/min for 10 min. The extraction residue was reconstituted in 100 μL of mobile phase and determined by HPLC. The mobile phase was a mixture of acetonitrile: water (containing 2% acetic acid) (52:48, v/v), the flow rate was 1 mL/min, and the detection wavelength was 426 nm. Pharmacokinetic parameters were calculated using PK SOLVER for the noncompartmental model.

In the next data set the test system is DSS‐induced colitis. The experiment in a line: Efficacy on DSS‐induced colitis mice. Particulars: daily oral 7 days, CUR 50 mg/kg. It counts as in vivo, BALB/c mice. On the procedure:
Male BALB/c mice (6–8 weeks, 20–25 g) were randomly divided into five groups with eight mice in each group after 1 week of acclimation. Except for the normal control group, the remaining four groups were given 3% DSS instead of ordinary drinking water for 7 days, during which they were fed normally to establish the mice colitis model. […] The body weight of the mice was recorded every day, and DAI was measured to assess the severity of the colitis according to body weight loss, character of stool, and the degree of hematochezia (Table 3).
After treatment with different formulas, the mice were sacrificed after anesthesia, the colon length was measured, and the colon tissue was fixed with 10% formalin and stained with hematoxylin and eosin (H&E) for pathological examination. To count colonic goblet cells, fixed colonic tissues were also stained using Alcian blue. […]
In addition, a portion of collected colon tissue (50 mg) was homogenized with RIPA lysis buffer (Thermo Fisher, Shanghai, China) to extract total proteins. […] The protein content of supernatant was quantified using a bicinchoninic acid (BCA) protein assay kit (Thermo Fisher, Shanghai, China). The concentration of pro‐inflammatory cytokines such as TNF‐α and IL‐1β was measured by ELISA kit (Enzyme‐linked Biotechnology Co., Ltd., China).

[4] abbreviates: male, SD, rat, plasma, po, 50 mg/kg.

For `COc1cc(/C=C/C(=O)CC(=O)/C=C/c2ccc(O)c(OC)c2)ccc1O` [CUR, Curcumin], the viability at 24 h, 12.5 μg/mL in data set [1] is 77.5%. The “Cellular uptake of CUR in HT29‐MTX (in words)” value with HT29‐MTX is listed as “weak fluorescence intensity”. In addition, the “Fluorescence signal in intestinal tissue (in vivo absorption, in words)” value in data set [2] is on record as “weak green fluorescence signal”. In data set [3] (SD rats, oral, CUR dose 50 mg/kg, n = 3), the CL was found to be 46.96 ± 1.12 L/h/kg. In data set [3] (setting [4]), the highest level (Cmax) was 0.041 ± 0.01 µg/mL, the MRT is 4.71 ± 0.48 h, the Tmax is 1 h and the half-life is 3.27 ± 0.32 h. Further, in data set [3] (male, SD, rat, plasma, po, 50 mg/kg, read-out: AUC0‐∞), the AUC was 0.252 ± 0.11 µg·h/mL. Also, in the data set with DSS‐induced colitis, the “Clinical symptoms (body weight loss, colon length shortening, DAI increase)” value is listed as “significantly improved” and the “Colonic epithelial mucosa / goblet cells (Alcian blue staining)” value is reported as “relieved the damage caused by DSS”.

The values above are taken from paper PMC10189451, “Palmitic acid‐ and cysteine‐functionalized nanoparticles overcome mucus and epithelial barrier for oral delivery of drug” (Bioengineering & Translational Medicine, 2023).
